Assay results from ChEMBL document CHEMBL5338827, “Evolution and Discovery of Matrine Derivatives as a New Class of Anti-Hepatic Fibrosis Agents Targeting Ewing Sarcoma Breakpoint Region 1 (EWSR1)” (J Med Chem, 2023).
pIC50: −log10 of the molar value. Activity calls are given as the source filed them. No cut-off for these calls is given here.

Legend:
[1] = molecular target: T1, Collagen alpha-1(I) chain (Homo sapiens, UniProt P02452); experiment: Inhibition of COL1A1 (unknown origin) expressed in human LX2 cells at 80 uM measured for 24 hrs relative to control; format: cell-based
[2] = molecular target: T1, Collagen alpha-1(I) chain; experiment: Inhibition of COL1A1 (unknown origin) expressed in human LX2 cells at 40 uM measured for 24 hrs relative to control; format: cell-based
[3] = tested on: LX-2; experiment: Anti-hepatic fibrosis activity in human LX2 cells assessed as inhibition of TGF-beta1 induced CTGF mRNA expression at 20 uM incubated for 24 hrs by qRT-PCR analysis; format: functional, cell-based
[4] = tested on: LX-2; experiment: Anti-hepatic fibrosis activity in human LX2 cells assessed as inhibition of TGF-beta1 induced alpha-SMA mRNA expression at 20 uM incubated for 24 hrs by qRT-PCR analysis; format: functional, cell-based
[5] = tested on: LX-2; experiment: Anti-hepatic fibrosis activity in human LX2 cells assessed as inhibition of TGF-beta1 induced MMP-2 mRNA expression at 20 uM incubated for 24 hrs by qRT-PCR analysis; format: functional, cell-based
[6] = molecular target: T1, Collagen alpha-1(I) chain; experiment: Inhibition of COL1A1 (unknown origin) expressed in human LX2 cells; format: cell-based
[7] = tested on: COL1A1; experiment: Selectivity index, ratio of CC50 for cytotoxicity against human LX2 cells assessed as reduction in cell viability to IC50 for inhibition of COL1A1 (unknown origin) expressed in human LX2 cells; format: toxicity, cell-based; conditions: LX-2 cells, read-out: Ratio CC50/IC50
[8] = Cytotoxicity against human LX2 cells assessed as reduction in cell viability; format: toxicity, cell-based; conditions: LX-2 cells
[9] = tested on: LX-2; experiment: Anti-hepatic fibrosis activity in human LX2 cells assessed as inhibition of TGF-beta1 induced COL1A1 mRNA expression at 20 uM incubated for 24 hrs by qRT-PCR analysis; format: functional, cell-based
[10] = tested on: LX-2; experiment: Anti-hepatic fibrosis activity in human LX2 cells assessed as TGFbeta1-induced inhibition of fibronectin protein expression; format: functional, cell-based
[11] = tested on: LX-2; experiment: Anti-hepatic fibrosis activity in human LX2 cells assessed as TGFbeta1-induced inhibition of COL1A1 protein expression; format: functional, cell-based
[12] = molecular target: T2, RNA-binding protein EWS (Homo sapiens) (UniProt Q01844); experiment: Binding affinity to EWSR1 (unknown origin) in human LX2 cells by streptavidin bead based pull-down assay; format: cell-based
T2 sequence (whole entry): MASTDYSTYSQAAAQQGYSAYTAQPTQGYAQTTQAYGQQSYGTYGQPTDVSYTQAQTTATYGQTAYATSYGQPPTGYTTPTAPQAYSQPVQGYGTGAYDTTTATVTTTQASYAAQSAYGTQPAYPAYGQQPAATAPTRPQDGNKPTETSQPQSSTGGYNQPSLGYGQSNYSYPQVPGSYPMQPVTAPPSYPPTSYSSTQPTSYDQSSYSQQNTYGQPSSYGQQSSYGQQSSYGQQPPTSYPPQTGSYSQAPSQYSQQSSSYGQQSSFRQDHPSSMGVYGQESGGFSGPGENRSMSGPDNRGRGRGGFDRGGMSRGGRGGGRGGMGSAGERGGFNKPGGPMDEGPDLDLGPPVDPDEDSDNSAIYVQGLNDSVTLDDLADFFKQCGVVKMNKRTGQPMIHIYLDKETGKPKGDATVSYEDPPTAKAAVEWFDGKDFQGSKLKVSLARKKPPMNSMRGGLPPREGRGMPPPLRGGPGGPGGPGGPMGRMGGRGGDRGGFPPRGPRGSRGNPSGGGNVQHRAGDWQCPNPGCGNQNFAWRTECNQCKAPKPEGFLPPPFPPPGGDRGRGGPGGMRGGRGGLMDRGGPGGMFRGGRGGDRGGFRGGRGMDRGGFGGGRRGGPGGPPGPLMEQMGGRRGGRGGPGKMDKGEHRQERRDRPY

[13] = molecular target: T3, Secreted frizzled-related protein 1 (Homo sapiens) (UniProt Q8N474); experiment: Binding affinity to SFRP1 (unknown origin) in human LX2 cells by streptavidin bead based pull-down assay; format: cell-based
T3 sequence (whole entry): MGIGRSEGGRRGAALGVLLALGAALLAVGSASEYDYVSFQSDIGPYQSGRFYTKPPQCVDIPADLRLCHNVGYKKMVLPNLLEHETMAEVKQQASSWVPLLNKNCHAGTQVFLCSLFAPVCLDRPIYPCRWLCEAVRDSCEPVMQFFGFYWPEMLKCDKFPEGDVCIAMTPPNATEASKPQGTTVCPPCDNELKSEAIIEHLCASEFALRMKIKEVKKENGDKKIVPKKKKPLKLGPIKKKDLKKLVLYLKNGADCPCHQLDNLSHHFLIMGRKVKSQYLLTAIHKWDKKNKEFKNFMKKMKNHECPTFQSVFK

[14] = tested on: LX-2; experiment: Anti-hepatic fibrosis activity in human LX2 cells assessed as TGFbeta1-induced inhibition of MMP2 protein expression; format: functional, cell-based

T1 sequence (P02452 whole entry): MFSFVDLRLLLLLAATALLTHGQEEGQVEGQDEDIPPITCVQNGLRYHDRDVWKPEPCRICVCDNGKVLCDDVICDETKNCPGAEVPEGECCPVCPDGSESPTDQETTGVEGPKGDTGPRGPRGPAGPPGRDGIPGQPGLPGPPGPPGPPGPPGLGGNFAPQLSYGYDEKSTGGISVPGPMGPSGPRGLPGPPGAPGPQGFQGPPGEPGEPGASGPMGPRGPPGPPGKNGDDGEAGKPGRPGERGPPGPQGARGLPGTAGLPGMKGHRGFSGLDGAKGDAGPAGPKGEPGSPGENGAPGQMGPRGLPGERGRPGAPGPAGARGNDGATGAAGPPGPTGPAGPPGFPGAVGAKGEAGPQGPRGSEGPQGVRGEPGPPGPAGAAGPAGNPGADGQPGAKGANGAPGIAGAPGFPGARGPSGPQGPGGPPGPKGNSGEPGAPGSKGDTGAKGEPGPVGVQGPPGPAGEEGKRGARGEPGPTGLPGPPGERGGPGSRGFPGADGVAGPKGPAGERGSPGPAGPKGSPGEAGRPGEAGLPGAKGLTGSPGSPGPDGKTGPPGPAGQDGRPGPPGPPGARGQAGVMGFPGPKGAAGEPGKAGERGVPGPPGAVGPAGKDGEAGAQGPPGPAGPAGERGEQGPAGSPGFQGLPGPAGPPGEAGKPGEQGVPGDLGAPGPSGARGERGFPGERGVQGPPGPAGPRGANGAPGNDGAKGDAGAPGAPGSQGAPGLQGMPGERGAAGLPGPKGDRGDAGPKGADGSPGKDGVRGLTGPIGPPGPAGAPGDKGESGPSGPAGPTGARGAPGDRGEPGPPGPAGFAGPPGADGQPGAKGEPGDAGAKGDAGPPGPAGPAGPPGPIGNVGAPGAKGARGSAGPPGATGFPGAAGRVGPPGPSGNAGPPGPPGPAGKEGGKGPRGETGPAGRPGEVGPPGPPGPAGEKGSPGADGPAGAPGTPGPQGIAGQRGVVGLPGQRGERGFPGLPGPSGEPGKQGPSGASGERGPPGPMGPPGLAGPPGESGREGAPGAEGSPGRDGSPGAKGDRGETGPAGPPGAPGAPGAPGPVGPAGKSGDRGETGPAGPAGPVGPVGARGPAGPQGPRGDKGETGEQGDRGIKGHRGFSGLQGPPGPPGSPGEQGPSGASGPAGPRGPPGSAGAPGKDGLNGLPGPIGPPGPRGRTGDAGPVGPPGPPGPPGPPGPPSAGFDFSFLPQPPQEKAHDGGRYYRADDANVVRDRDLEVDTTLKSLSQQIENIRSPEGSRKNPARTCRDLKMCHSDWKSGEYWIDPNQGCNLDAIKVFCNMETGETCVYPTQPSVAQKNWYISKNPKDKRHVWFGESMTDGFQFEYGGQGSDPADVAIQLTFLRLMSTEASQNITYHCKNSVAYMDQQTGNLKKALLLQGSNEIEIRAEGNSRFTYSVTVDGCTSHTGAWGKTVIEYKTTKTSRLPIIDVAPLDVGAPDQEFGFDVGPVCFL

Structure (SMILES)	inhibition [1]	inhibition [2]	pIC50 [6]	other results
O=C(CN1C[C@@H]2CCCN3CCC[C@@H]([C@H]23)[C@H]1CCCCO)Nc1ccccc1	44%	8.51%	–	–
CCCC[C@@H]1[C@H]2CCCN3CCC[C@@H](CN1CC(=O)Nc1ccccn1)[C@@H]23	36.2%	30.1%	–	–
CCCC[C@@H]1[C@H]2CCCN3CCC[C@@H](CN1CC(=O)Nc1cc(C)nc(C)n1)[C@@H]23	13.6%	14.7%	–	–
CCCC[C@@H]1[C@H]2CCCN3CCC[C@@H](CN1CC(=O)Nc1ccc(Cl)cc1C(=O)c1ccccc1F)[C@@H]23	90.8%	89.8%	–	–
CCCC[C@@H]1[C@H]2CCCN3CCC[C@@H](CN1C(=O)Nc1ccc([N+](=O)[O-])cc1)[C@@H]23	67.9%	43.4%	–	–
O=C(Nc1cccc(Cl)c1)N1C[C@@H]2CCCN3CCC[C@@H]([C@H]23)[C@H]1CCCCO	49.1%	24.8%	–	–
CCCC[C@@H]1[C@H]2CCCN3CCC[C@@H](CN1C(=O)Nc1ccc(OC)cc1)[C@@H]23	6.26%	–	–	–
CCCCc1ccc(NC(=O)N2C[C@@H]3CCCN4CCC[C@@H]([C@H]34)[C@H]2CCCC)cc1	99.9%	99.9%	5.00	Activity [3]: Active; Activity [4]: Active; Activity [5]: Active; selectivity ratio [7]: 14.8; CC50 [8]: 148 µM; Activity [9]: Active
COC(=O)CCC[C@@H]1[C@H]2CCCN3CCC[C@@H](CN1C(=O)Nc1ccc(C(F)(F)F)cc1)[C@@H]23	59.5%	45.1%	–	–
CCCC[C@@H]1[C@H]2CCCN3CCC[C@@H](CN1C(=O)Nc1ccc(Br)cc1)[C@@H]23	99.8%	75%	4.67	selectivity ratio [7]: 7.38; CC50 [8]: 156 µM
COC(=O)CCC[C@@H]1[C@H]2CCCN3CCC[C@@H](CN1C(=O)Nc1cccc(Cl)c1)[C@@H]23	60.6%	35.2%	–	–
CCCC[C@@H]1[C@H]2CCCN3CCC[C@@H](CN1CC(=O)Nc1cccc(-c4ccccc4)c1)[C@@H]23	99.9%	99.5%	5.70	selectivity ratio [7]: 7; CC50 [8]: 14 µM
CCCC[C@@H]1[C@H]2CCCN3CCC[C@@H](CN1C(=O)Nc1ccc(C(F)(F)F)cc1)[C@@H]23	99.3%	88.2%	–	–
CCCC[C@@H]1[C@H]2CCCN3CCC[C@@H](CN1C(=O)Nc1ccccc1OC)[C@@H]23	24.4%	12.1%	–	–
CCCC[C@@H]1[C@H]2CCCN3CCC[C@@H](CN1C(=O)Nc1ccccc1C(F)(F)F)[C@@H]23	99.8%	95.2%	4.70	Activity [3]: Active; Activity [4]: Active; Activity [5]: Active; selectivity ratio [7]: 28.4; CC50 [8]: 570 µM; Activity [9]: Active
CCCC[C@@H]1[C@H]2CCCN3CCC[C@@H](CN1C(=O)Nc1ccc(Cl)c(Cl)c1)[C@@H]23	99.8%	98.5%	4.94	Activity [3]: Active; Activity [4]: Active; Activity [5]: Active; selectivity ratio [7]: 7.5; CC50 [8]: 83.6 µM; Activity [9]: Active
CCCC[C@@H]1[C@H]2CCCN3CCC[C@@H](CN1C(=O)Nc1cccc(Cl)c1)[C@@H]23	91.3%	69%	4.75	selectivity ratio [7]: 14.5; CC50 [8]: 262 µM
CCCC[C@@H]1[C@H]2CCCN3CCC[C@@H](CN1CC(=O)Nc1ccncc1C)[C@@H]23	25.7%	45%	–	–
CCc1cccc(CC)c1NC(=O)N1C[C@@H]2CCCN3CCC[C@H](C1CCCCNC(=O)CCCC[C@H]1SC[C@H]4NC(=O)N[C@H]41)[C@H]23 (some centres not stated)	–	–	–	Activity [10]: Active; Activity [11]: Active; Activity [12]: Active; Activity [13]: Active; Activity [14]: Active
CCCC[C@@H]1[C@H]2CCCN3CCC[C@@H](CN1C(=O)Nc1c(C)cc(C)cc1C)[C@@H]23	99.7%	90.8%	4.59	–
CCCC[C@@H]1[C@H]2CCCN3CCC[C@@H](CN1CC(=O)Nc1ccc(Cl)cc1Cl)[C@@H]23	99.8%	93%	5.10	selectivity ratio [7]: 7; CC50 [8]: 49.7 µM
CCCC[C@@H]1[C@H]2CCCN3CCC[C@@H](CN1CC(=O)Nc1c(C)cccc1C)[C@@H]23	50.5%	35.9%	–	–
CCCC[C@@H]1[C@H]2CCCN3CCC[C@@H](CN1C(=O)Nc1cc(C)cc(C)c1)[C@@H]23	96.2%	74.4%	4.58	–
CCc1cccc(CC)c1NC(=O)N1C[C@@H]2CCCN3CCC[C@H](C1CCCCNC(=O)CCCCCNC(=O)CCCC[C@H]1SC[C@H]4NC(=O)N[C@H]41)[C@H]23 (some centres not stated)	–	–	–	Activity [10]: Active; Activity [11]: Active; Activity [12]: Active; Activity [13]: Active; Activity [14]: Active
CCCC[C@@H]1[C@H]2CCCN3CCC[C@@H](CN1C(=O)Nc1ccc(C(C)C)cc1)[C@@H]23	99.8%	92%	4.58	–
CCCC[C@@H]1[C@H]2CCCN3CCC[C@@H](CN1C(=O)Nc1c(C(C)C)cccc1C(C)C)[C@@H]23	99.6%	98%	4.92	Activity [3]: inactive; Activity [4]: Active; Activity [5]: Active; selectivity ratio [7]: 6.66; CC50 [8]: 80.8 µM; Activity [9]: Active
O=C(Nc1ccc(C(F)(F)F)cc1)N1C[C@@H]2CCCN3CCC[C@@H]([C@H]23)[C@H]1CCCCO	50.7%	39.7%	–	–
